Source: PMC10004634 (PLOS ONE, 2023)
Entries after “also recorded” stand apart in the source; their conditions may differ.

System: TMD8 cells
Assay: RT-qPCR of IRF4, BCL6, MYC mRNA
Assay type: cell-based, human
Details: 24 h, tirabrutinib 1 μM, BMS-345541 10 μM, MK-2206 1 μM, refametinib 0.1 μM
Procedure: After culturing, total RNA was isolated from cells using the RNeasy Plus Mini Kit (Qiagen), then cDNA was prepared from total RNA using the SuperScript VILO cDNA Synthesis Kit (Invitrogen) following the kit instructions. For quantification of each mRNA expression level, PCR was performed using TaqMan Fast Universal PCR Master Mix (Thermo Fisher Scientific) under the following conditions with the AriaMx Real Time PCR System (Agilent Technologies): 95°C for 3 min, followed by 40 cycles at 95°C for 5 s and 60°C for 20 s with continuous fluorescence measurement. All PCRs were performed in triplicate, and the mRNA expression of GAPDH was used as an internal control. The results (fold changes of the threshold cycle [Ct] relative to the control group) were obtained using the 2^−ΔΔCt method. The TaqMan probes for IRF4 (Assay ID: Hs00180031_m1), BCL6 (Assay ID: Hs00153368_m1), MYC (Assay ID: Hs00153408_m1), and GAPDH (Assay ID: Hs02786624_g1) were purchased from Thermo Fisher Scientific. Statistical tests were performed with the SAS 9.4 (SAS Institute Japan Ltd., Tokyo, Japan) TS1M4-based EXSUS system version 10.1.3 (CAC Corporation, Tokyo, Japan). The t-test or Dunnett test was used to compare mRNA expression in the DMSO- and compound-treated groups. The statistical tests were two-sided with a 5% significance level.

| SMILES | IRF4 mRNA expression | MYC mRNA expression |
| --- | --- | --- |
| Cc1ccc2nc(NCCN)c3ncc(C)n3c2c1 [BMS-345541] | significant downregulation; also recorded: strongly inhibited | significant downregulation; also recorded: strong inhibition |
| NC1(c2ccc(-c3nc4ccn5c(=O)[nH]nc5c4cc3-c3ccccc3)cc2)CCC1 [MK-2206] | did not downregulate | did not downregulate |
| COc1cc(F)c(F)c(Nc2ccc(I)cc2F)c1NS(=O)(=O)C1(C[C@H](O)CO)CC1 [refametinib] |  | tended to downregulate; also recorded: partially downregulated |
